Test results reported in a compilation of properties of binary mixtures (doi:10.1007/s10953-017-0578-y).

Test: xn = mol fraction of the nth substance listed
Conditions: 100 kPa

Molecule `CNc1ccccc1` + CC[n+]1ccn(C)c1.F[B-](F)(F)F has a speed of sound (293.15 K, x2 = 0.1046) of 1603.9 m/s, a speed of sound (293.15 K, x2 = 0.2048) of 1617.6 m/s and a speed of sound (293.15 K, x2 = 0.3057) of 1627.9 m/s. The speed of sound (293.15 K, x2 = 0.3985) was 1632.7 m/s, the speed of sound (293.15 K, x2 = 0.5064) was 1632.5 m/s and the speed of sound (293.15 K, x2 = 0.6994) was 1627.7 m/s. For the same molecule, the speed of sound (293.15 K, x2 = 0.8005) was 1625.9 m/s, the speed of sound (293.15 K, x2 = 0.9084) was 1627 m/s and the speed of sound (303.15 K, x2 = 0.1046) was 1568.9 m/s. For the same molecule, the speed of sound (303.15 K, x2 = 0.2048) was 1586.9 m/s, the speed of sound (303.15 K, x2 = 0.3985) was 1603.8 m/s and the speed of sound (303.15 K, x2 = 0.5064) was 1604.7 m/s. The speed of sound (303.15 K, x2 = 0.6045) was 1604.1 m/s, the speed of sound (303.15 K, x2 = 0.6994) was 1602.6 m/s and the speed of sound (303.15 K, x2 = 0.8005) was 1601.3 m/s. It also gave a speed of sound (303.15 K, x2 = 0.9084) of 1604 m/s, a speed of sound (313.15 K, x2 = 0) of 1511.7 m/s and a speed of sound (313.15 K, x2 = 0.3057) of 1567 m/s. For the same molecule, the speed of sound (313.15 K, x2 = 0.3985) was 1574.4 m/s, the speed of sound (313.15 K, x2 = 0.5064) was 1576.1 m/s and the speed of sound (313.15 K, x2 = 0.6045) was 1578.3 m/s. The speed of sound (313.15 K, x2 = 0.6994) was 1577.9 m/s, the speed of sound (313.15 K, x2 = 0.8005) was 1576.2 m/s and the speed of sound (313.15 K, x2 = 0.9084) was 1579.4 m/s. It also gave a speed of sound (323.15 K, x2 = 0) of 1476.4 m/s, a speed of sound (323.15 K, x2 = 0.1046) of 1500.3 m/s and a speed of sound (323.15 K, x2 = 0.2048) of 1523.6 m/s. For the same molecule, the speed of sound (323.15 K, x2 = 0.3057) was 1537.2 m/s, the speed of sound (323.15 K, x2 = 0.3985) was 1545.6 m/s and the speed of sound (323.15 K, x2 = 0.5064) was 1549 m/s. It also gave a speed of sound (323.15 K, x2 = 0.6994) of 1551.6 m/s, a speed of sound (323.15 K, x2 = 0.8005) of 1550.4 m/s and a speed of sound (323.15 K, x2 = 0.9084) of 1553.3 m/s.
`CC[n+]1ccn(C)c1.F[B-](F)(F)F` + CNc1ccccc1 gave a speed of sound (293.15 K, x1 = 1) of 1632.6 m/s, a speed of sound (303.15 K, x1 = 1) of 1609.5 m/s and a speed of sound (313.15 K, x1 = 1) of 1586.2 m/s. It also gave a speed of sound (323.15 K, x1 = 1) of 1563.4 m/s.
